In patent US20240408047A1, “HYPOXIA INDUCIBLE FACTOR-2(ALPHA) INHIBITORS FOR THE TREATMENT OF BLADDER CANCER” (NIKANG THERAPEUTICS, INC., priority 2021, published 2024):

How the values were obtained:
T24 xenograft model = test: Anti-tumor effect in mouse bladder cancer xenograft model T24; assay type: in vivo, Balb/c Nude mouse; conditions: 20 mg/kg bid, 17-30 days
Procedure: (§1) Compound 1 was formulated with 0.5% methylcellulose. 4˜10×10^6 tumor cells in PBS and Corning® Matrigel (11 in volume) were inoculated subcutaneously at right flank for each Balb/c Nude mouse at 6-7 weeks of age for tumor development. Once tumors were 100-200 mm^3 in size, the tumor bearing mice were randomly grouped into 2 groups (n=8) and treatment started with vehicle bid and Compound 1 at 20 mg/kg bid, respectively, for 17-30 days. Tumor sizes were measured twice weekly in two dimensions using a caliper and the volumes were expressed in mm^3 using the formula V=0.5×a×b^2 where a and b were the long and short diameters of the tumor, respectively.

RT112 xenograft model = test: Anti-tumor effect in mouse bladder cancer xenograft model RT112; assay type: in vivo, Balb/c Nude mouse; conditions: 20 mg/kg bid, 17-30 days
Procedure: as §1

T24 cells = test: Hypoxia-induced mRNA upregulation of VEGFA and GLUT1 in T24 cells (quantitative PCR); assay type: cell-based; conditions: 72 h, hypoxic (1% O2), Compound 1 at 1.0 μM
Procedure: T24 cells were treated with DMSO or 1.0 μM of Compound 1; control siRNA or siRNA specific for HIF-1α, HIF-2α, for 72 h under normoxic (20% O2) or hypoxic (1% O2) conditions. Total RNA was extracted using RNeasy mini kit (Qiagen, Catalog #74104) and QIAshredder (Qiagen, Catalog #79654). Then RNA was reverse-transcribed into cDNA using Applied Biosystems™ High-Capacity cDNA Reverse Transcription Kit (Applied Biosystems™ cat #4368814). The cDNA was used as templates to examine the mRNA expression of VEGFA and GLUT1 by quantitative polymerase chain reaction (PCR) assays (PowerUp SYBR Green Master Mix by Applied Biosystems™, cat #A25742), with GAPDH serving as control for normalization.

RT4 xenograft model = test: Anti-tumor effect in mouse bladder cancer xenograft model RT4; assay type: in vivo, Balb/c Nude mouse
Procedure: as §1

nectin-4 = conditions: patients who progressed following treatment with chemotherapy and immunotherapy; cited from earlier work

## N#Cc1cc(F)cc(Oc2ccc3c4c2[C@@H](F)C[C@]4(O)C(F)(F)C3(F)F)c1 [Compound 1, 3-fluoro-5-(((1S,2aR)-1,3,3,4,4-pentafluoro-2a-hydroxy-2,2a,3,4-tetrahydro-1H-cyclopenta[cd]inden-7-yl)oxy)benzonitrile]
T24 xenograft model
  anti-tumor effect in T24 xenograft model: complete tumor regression
RT112 xenograft model
  anti-tumor effect in RT112 xenograft model: marginal anti-tumor effect
T24 cells
  GLUT1 mRNA level induced by hypoxia: significantly suppressed
  VEGFA mRNA level induced by hypoxia: significantly suppressed
RT4 xenograft model; 20 mg/kg bid, 17-30 days
  anti-tumor effect in RT4 xenograft model: significant tumor growth inhibition
RT4 xenograft model; RT4 model, 20 mg/kg of Compound 1
  TGI: 44%

## Enfortumab vedotin
nectin-4
  objective response rate: 44%
